Source: publication PMC2628638, “Catalytic inhibition of topoisomerase II by a novel rationally designed ATP-competitive purine analogue” (BMC Chemical Biology, 2009)

What was measured:
IGF-1R = IGF-1R (Homo sapiens, UniProt P08069); experiment: Radiometric filter binding kinase assay; type: biochemical
Excerpt: (§1) Based on homology structural models of the target, a purine scaffold was designed interactively using the Macromodel modeling software. The designed purine scaffold was subsequently used as a substructure query to search the Novartis compound collection. Around 50 molecules were retrieved in this manner and screened in an ATPase assay using purified full length tagged human topoisomerase II alpha. […] Subsequently, we carried out kinetic analysis with QAP 1 in order to corroborate the mode of action. […] The data were analyzed by non-linear regression analysis using the equations corresponding to competitive, uncompetitive, and mixed inhibition (see Methods) and a statistical analysis (F-test; p ≤ 0.05) was carried out to identify the best model. […] A linearized representation (Eady-Hofstee) of one of these experiments is depicted in Figure 1D. To confirm the mode of action of QAP 1, inhibition studies were also carried out in the presence of different concentration of the inhibitor at different ATP concentrations and the IC50 values were determined. […] Next, QAP 1 was tested against a panel of kinases in a radiometric assay. With the exception of subtle inhibition of the Ret and c-Src tyrosine kinases no effect of the compound was observed on other kinases in the panel, even at the highest concentration tested (Table 1). Thus, QAP 1 is a relatively potent inhibitor of topoisomerase II ATPase function with fairly good selectivity over various serine/threonine/tyrosine protein kinases. To test if QAP 1 inhibited topoisomerase II DNA strand passage activity, nuclear extracts of HL-60 leukemic cells were incubated with catenated kDNA in the presence of increasing concentrations of QAP 1.

PDK1 = PDK1 (Homo sapiens, UniProt O15530); experiment: Radiometric filter binding kinase assay; type: biochemical
PDK1, sequence (O15530 whole entry): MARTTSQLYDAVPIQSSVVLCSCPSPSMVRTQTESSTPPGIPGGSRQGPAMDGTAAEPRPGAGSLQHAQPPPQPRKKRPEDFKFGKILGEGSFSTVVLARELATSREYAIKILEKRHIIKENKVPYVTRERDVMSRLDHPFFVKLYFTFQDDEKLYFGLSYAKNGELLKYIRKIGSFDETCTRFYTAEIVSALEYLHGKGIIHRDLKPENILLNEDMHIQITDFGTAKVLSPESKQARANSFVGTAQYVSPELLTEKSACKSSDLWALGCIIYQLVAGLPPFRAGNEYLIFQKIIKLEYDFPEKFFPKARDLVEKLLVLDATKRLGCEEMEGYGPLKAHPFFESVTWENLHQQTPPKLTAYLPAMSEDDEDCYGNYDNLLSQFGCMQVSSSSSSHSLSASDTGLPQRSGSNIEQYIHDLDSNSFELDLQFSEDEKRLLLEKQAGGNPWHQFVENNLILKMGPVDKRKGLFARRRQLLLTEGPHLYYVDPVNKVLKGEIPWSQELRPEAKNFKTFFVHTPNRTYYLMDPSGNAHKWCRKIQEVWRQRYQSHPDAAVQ
Excerpt: as §1

KDR = KDR (Homo sapiens, UniProt P35968); experiment: Radiometric filter binding kinase assay; type: biochemical
KDR, sequence (P35968 20-1356, species assumed): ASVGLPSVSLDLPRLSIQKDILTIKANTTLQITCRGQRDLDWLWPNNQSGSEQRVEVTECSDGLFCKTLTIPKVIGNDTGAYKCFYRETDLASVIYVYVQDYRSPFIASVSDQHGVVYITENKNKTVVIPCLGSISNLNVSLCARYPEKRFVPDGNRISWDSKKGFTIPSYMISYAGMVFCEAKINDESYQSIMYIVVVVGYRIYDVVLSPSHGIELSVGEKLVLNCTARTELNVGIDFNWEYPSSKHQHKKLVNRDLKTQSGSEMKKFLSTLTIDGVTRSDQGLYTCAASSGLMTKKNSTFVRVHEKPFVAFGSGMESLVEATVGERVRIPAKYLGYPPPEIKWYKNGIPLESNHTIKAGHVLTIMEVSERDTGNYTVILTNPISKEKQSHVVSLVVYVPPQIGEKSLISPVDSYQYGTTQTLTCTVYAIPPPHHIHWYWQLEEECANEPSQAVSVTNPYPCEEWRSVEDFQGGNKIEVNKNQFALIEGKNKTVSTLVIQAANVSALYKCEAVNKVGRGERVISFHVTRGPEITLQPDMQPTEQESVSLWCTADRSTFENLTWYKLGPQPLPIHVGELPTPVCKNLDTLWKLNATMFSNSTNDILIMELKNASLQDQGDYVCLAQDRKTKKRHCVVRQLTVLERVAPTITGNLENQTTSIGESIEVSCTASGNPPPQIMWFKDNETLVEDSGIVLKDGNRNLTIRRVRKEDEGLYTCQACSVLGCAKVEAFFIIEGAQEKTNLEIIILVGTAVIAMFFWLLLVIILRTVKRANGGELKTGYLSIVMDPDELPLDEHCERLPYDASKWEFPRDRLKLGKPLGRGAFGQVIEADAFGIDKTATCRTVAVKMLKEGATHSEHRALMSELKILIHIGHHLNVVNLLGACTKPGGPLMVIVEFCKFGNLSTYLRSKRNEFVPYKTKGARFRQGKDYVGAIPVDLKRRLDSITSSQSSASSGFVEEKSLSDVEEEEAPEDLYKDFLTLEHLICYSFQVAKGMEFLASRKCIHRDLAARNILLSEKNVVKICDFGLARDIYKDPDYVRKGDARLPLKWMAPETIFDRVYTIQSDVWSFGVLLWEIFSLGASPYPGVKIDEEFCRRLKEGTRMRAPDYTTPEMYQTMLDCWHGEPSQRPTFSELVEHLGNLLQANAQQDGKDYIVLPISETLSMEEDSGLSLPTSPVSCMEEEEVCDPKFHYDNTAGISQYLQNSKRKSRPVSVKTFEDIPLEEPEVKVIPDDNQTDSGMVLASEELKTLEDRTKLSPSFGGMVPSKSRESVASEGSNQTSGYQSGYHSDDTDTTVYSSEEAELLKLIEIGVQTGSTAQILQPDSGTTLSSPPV
Excerpt: as §1

c-Abl = c-Abl (Homo sapiens, UniProt P00519); experiment: Radiometric filter binding kinase assay; type: biochemical
Excerpt: as §1

c-Src = c-Src (Homo sapiens, UniProt P12931); experiment: Radiometric filter binding kinase assay; type: biochemical; details: mean of two independent experiments ± SD
c-Src, sequence (P12931 whole entry, species assumed): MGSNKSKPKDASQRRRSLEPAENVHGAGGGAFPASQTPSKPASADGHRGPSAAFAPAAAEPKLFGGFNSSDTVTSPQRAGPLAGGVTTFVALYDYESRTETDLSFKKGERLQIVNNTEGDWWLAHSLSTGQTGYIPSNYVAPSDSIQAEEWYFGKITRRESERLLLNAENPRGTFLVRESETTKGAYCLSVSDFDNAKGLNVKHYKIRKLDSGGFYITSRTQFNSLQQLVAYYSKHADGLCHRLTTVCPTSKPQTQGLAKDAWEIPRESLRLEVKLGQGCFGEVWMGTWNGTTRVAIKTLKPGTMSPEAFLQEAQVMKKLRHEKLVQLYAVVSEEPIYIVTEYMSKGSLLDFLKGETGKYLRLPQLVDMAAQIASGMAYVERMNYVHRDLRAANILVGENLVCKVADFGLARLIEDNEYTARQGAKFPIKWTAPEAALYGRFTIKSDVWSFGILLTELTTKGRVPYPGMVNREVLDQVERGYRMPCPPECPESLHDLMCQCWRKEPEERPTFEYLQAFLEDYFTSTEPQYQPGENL
Excerpt: as §1

BRAF-V600E = BRAF-V600E (Homo sapiens, UniProt P15056, V600E); experiment: Radiometric filter binding kinase assay; type: biochemical
Excerpt: as §1

Tek = Tek (Homo sapiens, UniProt Q02763); experiment: Radiometric filter binding kinase assay; type: biochemical
Tek, sequence (Q02763 23-1124, species assumed): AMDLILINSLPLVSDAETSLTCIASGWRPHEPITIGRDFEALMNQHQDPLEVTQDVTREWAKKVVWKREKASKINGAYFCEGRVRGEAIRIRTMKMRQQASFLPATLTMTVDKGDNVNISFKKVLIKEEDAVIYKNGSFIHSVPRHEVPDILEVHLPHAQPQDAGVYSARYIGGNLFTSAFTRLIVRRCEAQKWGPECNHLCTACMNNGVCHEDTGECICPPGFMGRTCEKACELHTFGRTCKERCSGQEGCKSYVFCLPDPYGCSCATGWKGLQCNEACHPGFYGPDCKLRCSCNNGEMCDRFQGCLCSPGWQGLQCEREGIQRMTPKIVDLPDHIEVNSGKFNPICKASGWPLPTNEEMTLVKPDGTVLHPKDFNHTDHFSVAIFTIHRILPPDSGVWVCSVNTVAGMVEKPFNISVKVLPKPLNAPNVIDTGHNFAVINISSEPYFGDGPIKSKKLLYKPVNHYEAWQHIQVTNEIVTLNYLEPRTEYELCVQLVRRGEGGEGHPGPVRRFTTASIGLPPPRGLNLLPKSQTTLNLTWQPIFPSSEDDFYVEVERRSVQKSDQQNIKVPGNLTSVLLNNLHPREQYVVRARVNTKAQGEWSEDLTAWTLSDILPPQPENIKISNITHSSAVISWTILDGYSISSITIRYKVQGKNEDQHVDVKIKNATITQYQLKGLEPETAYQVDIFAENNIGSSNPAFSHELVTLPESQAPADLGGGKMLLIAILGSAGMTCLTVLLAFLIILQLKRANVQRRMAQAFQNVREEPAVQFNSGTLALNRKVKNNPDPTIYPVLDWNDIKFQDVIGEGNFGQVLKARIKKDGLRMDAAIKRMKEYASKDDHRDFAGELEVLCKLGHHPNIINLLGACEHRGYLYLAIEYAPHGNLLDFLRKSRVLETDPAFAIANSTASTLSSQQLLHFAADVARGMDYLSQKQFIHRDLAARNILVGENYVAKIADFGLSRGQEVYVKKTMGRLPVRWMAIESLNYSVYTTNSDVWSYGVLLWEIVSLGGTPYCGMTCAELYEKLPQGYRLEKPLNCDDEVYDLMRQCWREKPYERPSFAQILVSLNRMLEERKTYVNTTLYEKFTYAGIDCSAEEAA
Excerpt: as §1

Axl = Axl (Homo sapiens, UniProt P30530); experiment: Radiometric filter binding kinase assay; type: biochemical
Excerpt: as §1

c-Met = c-Met (Homo sapiens, UniProt P08581); experiment: Radiometric filter binding kinase assay; type: biochemical
Excerpt: as §1

EphB4 = EphB4 (Homo sapiens, UniProt P54760); experiment: Radiometric filter binding kinase assay; type: biochemical
Excerpt: as §1

Jak2 = Jak2 (Homo sapiens, UniProt O60674); experiment: Radiometric filter binding kinase assay; type: biochemical
Excerpt: as §1

PKB = experiment: Radiometric filter binding kinase assay; type: biochemical
PKB, sequence (P31749 whole entry): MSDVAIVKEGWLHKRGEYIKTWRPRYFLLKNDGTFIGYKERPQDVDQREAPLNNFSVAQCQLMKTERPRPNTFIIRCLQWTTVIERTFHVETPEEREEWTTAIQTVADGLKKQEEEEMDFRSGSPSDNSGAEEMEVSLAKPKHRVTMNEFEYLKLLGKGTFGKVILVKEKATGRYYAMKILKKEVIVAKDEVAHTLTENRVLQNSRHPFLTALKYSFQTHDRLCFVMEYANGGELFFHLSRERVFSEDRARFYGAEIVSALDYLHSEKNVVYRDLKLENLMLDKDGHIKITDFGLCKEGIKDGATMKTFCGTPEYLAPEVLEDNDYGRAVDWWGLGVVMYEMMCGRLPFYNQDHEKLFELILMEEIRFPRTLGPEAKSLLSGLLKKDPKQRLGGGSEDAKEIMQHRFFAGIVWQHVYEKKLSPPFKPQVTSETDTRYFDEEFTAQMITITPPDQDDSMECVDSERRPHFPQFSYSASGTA
Excerpt: as §1

CDK1/CycB = CDK1/CycB (Homo sapiens, UniProt P06493); experiment: Radiometric filter binding kinase assay; type: biochemical
CDK1/CycB, sequence (P06493 whole entry, species assumed): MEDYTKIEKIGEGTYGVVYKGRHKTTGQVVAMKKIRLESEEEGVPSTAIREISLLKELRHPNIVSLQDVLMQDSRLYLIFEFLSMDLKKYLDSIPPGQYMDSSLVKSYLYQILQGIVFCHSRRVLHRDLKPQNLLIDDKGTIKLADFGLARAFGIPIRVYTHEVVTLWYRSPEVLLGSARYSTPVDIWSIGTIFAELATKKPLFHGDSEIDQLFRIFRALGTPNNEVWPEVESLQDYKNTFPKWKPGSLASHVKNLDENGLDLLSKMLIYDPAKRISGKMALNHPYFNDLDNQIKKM
CDK1/CycB, sequence (P14635 whole entry partner, species assumed): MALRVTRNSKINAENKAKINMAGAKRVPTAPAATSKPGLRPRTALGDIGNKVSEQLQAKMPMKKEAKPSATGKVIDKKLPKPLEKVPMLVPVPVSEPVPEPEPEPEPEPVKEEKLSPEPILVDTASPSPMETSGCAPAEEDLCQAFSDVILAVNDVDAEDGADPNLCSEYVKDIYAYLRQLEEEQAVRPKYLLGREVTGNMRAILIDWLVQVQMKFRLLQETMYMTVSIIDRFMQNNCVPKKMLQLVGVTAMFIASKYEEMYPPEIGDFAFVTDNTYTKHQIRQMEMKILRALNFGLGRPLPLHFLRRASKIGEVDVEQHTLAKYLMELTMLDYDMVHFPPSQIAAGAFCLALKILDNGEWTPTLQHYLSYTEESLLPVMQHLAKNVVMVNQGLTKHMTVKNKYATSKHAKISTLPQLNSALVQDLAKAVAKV
Excerpt: as §1

[1] = system: HCC1937 BRCA1 mutant and HCC1937 BRCA1 reconstituted cells; experiment: Clonogenic growth assay (WST-1, colony counting); type: cell-based
Experimental: HCC1937 BRCA1 mutant and HCC1937 BRCA1 reconstituted breast ductal carcinoma cells were cultured in RPMI-1640 medium supplemented with 10% fetal calf serum, 2 mM L-glutamine, 1 mM sodium pyruvate, 4.5 g/l glucose and 1% (v/v) penicillin/streptomycin. Status of BRCA1 was corroborated by immunoprecipitation using 50 μg nuclear extracts and 1 μg mouse monoclonal antibody MS110 (ab16780, Abcam Inc., Cambridge, MA), which is directed towards the amino-terminus of the protein. Blots were probed with BRCA1 carboxy-terminal specific mouse monoclonal antibody D9 (sc-6954, Santa Cruz Biotechnologies, Santa Cruz, CA) and, following stripping, re-probed with antibody MS110. For assays, 5000 cells in 3 ml medium were seeded per well of 6 well plates in duplicates. The day after, vehicle (DMSO) or compounds were added. After one week medium was exchanged and vehicle or compounds were re-added for an additional two days. To assess proliferation the medium in each well was replaced with 1 ml medium containing 100 μl WST-1 reagent and incubation for 20 minutes at 37°C. Of each sample 110 μl supernatant were transferred into a 96 well plate and the OD was read at 450 nm (filter at 630 nm) on a SpectraMax Plus microtiter plate reader using SoftMax Pro software (Molecular Devices). For background correction, the blank value consisted of 100 μl medium containing 10 μl WST-1. Thereafter, colonies were stained by removing medium, washing cells once with PBS and incubation with 1 ml crystal violet solution for 30 minutes at room temperature. Cells were washed twice with PBS and colonies were counted using an Artec Counter (Model 880, Artec, Dyntatech Laboratories Inc.) with diameter cut-off set to 0.2 mm. Data were expressed as growth or colony numbers relative to vehicle control treatments (100%).

[2] = target: T1, purified human topoisomerase II alpha (Homo sapiens, UniProt P11388); experiment: DNA decatenation assay with purified enzyme (kDNA); type: biochemical; details: catenated kDNA, read-out: mean IC50, inhibition of DNA decatenation
T1 construct: screened in an ATPase assay using purified full length tagged human topoisomerase II alpha; made in house; host or cells: Sf21 insect cells, baculovirus (pFastBac1)
Experimental: Reagents for the assay were purchased from TopoGEN (catalog number 1001–1, TopoGEN, Inc., Port Orange, FL). Topoisomerase II was extracted according to the manufacturer's instructions from nuclei of HL-60 cells (ATCC; American Type Culture Collection, Manassas, Virginia, USA) and contained both isoforms as assessed by Western blotting. Calculation of specific topoisomerase II decatenation activity was based on complete decatenation of a given amount of catenated input DNA (100 ng kDNA) by a defined amount of nuclear extract containing the alpha and beta isoforms or of a defined amount of purified enzyme in a particular amount of time. The topoisomerase II activity from nuclei decatenated 0.07 ng catenated kDNA · min^-1 · ng^-1 extract. Purified topoisomerase II alpha (see above) decatenated 0.13 ng catenated kDNA · min^-1 · ng^-1. Vehicle (DMSO) or drug substance at concentrations to yield the desired end concentrations were added and samples were preincubated for 5 minutes at 37°C and 400 rpm in an Eppendorf thermomixer. Reactions were started by adding ATP (to 450 μM final concentration) to each sample and incubation was continued for 20 minutes. […] Gels were analyzed under a UV transilluminator and decatenated kDNA products were quantified using AlphaEaseFC (FluorChem 8900) image analysis software version 3.2.3 (Alpha Innotech, San Leandro, CA).

- IC50 (IGF-1R): > 10 µM
- IC50 (PDK1): > 10 µM
- IC50 (KDR): > 10 µM
- IC50 (c-Abl): > 10 µM
- IC50 (c-Src): 1.7 ± 0.5 µM
- IC50 (BRAF-V600E): > 10 µM
- IC50 (Tek): > 10 µM
- IC50 (Axl): > 10 µM
- IC50 (c-Met): > 10 µM
- IC50 (EphB4): > 10 µM
- IC50 (Jak2): > 10 µM
- IC50 (PKB): > 10 µM
- IC50 (CDK1/CycB): > 10 µM
- IC50 [2]: 0.66 µM
SMILES: CCc1nc2nc(Nc3ccc4nc(OCCN5CCOCC5)ccc4c3)nc(NC(C)(C)C)c2[nH]1 [QAP 1]
- colony formation of BRCA1 mutant cells ([1]; 5 μM, 9 days): striking suppression
- sensitivity of BRCA1 mutant versus BRCA1 reconstituted HCC1937 cells ([1]; continuous treatment for 9 days, WST-1 and colony numbers): differential antiproliferative effect
